In one test the target is T1, WEE1 (Homo sapiens, UniProt P30291+Q96SW2).
T1 construct: C-terminal ePL-tagged (DiscoverX, Fremont, CA) full-length WEE1 expression construct; expressed in transfected cells; host or cells: LentiX-HEK293T (Invitrogen), lentiviral transduction; co-expressing GSPT1-GN (G576N, lacking the first 158 amino acids)
The test is described as follows: WEE1-ePL degradation assay (LentiX-WEE1-ePL-GSPT1-ND cells, InCELL Hunter luminescence, 4 h). To be noted: 293T-LentiX WEE1-ePL cells; for DC50: read-out: 293T-LentiX WEE1-ePL Degradation 4 hr (EC50). The test is classed as cell-based. In outline:
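Luminescent readout (InCELL Hunter, 30 min RT) of WEE1-ePL levels in transduced HEK293T cells after 4 h compound exposure at 37 °C. Dosing: 10 points, 3-fold steps, top 1 uM or 10 uM. EC50 from four-parameter logistic fit; Ymax set by DMSO.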

The subject of another test is MKN45 cells. The test is described as follows: MKN45 cell proliferation assay (Cell-Titer-Glo, 120 h). The class given is cell-based. As to conditions: for EC50: Homo sapiens, MKN-45, 120 h, Cell-Titer-Glo, read-out: MKN45 Cell Prolif. 120 hr (EC50); for MKN45 Cell Prolif. 120 hr (Ymin-Obs): minimal percent of DMSO control observed in the concentrations tested. An outline of the steps:
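Cells seeded at 400/well onto pre-printed 10-point half-log dilutions (top 1 or 10 uM, 0.1% DMSO final), in triplicate, and grown 120 h at 37 C. Viability by Cell-Titer-Glo luminescence, blank-subtracted and normalised to DMSO; EC50 from four-parameter logistic fit, with observed minimal % of control recorded as Ymin-obs.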

The mark [1] stands for this setting: lower limit of the fit (0 = luciferase inhibitor, Ymax = DMSO control).
The mark [2] stands for this setting: lower limit of the fit (Ymin=0 luciferase inhibitor, Ymax DMSO control).

Where two headings read alike, the source gives them in different places.

As to `CO[C@@H]1CN(Cc2ccc3nc(C4CCOCC4)ccc3c2)C[C@H]1Oc1ccc2c(c1)CN(C1CCC(=O)NC1=O)C2=O` (stereo partly drawn) [3-(5-{[(3R,4R)-4-methoxy-1-{[2-(oxan-4-yl)quinolin-6-yl]methyl}pyrrolidin-3-yl]oxy}-1-oxo-2,3-dihydro-1H-isoindol-2-yl)piperidine-2,6-dione], the “293T-LentiX WEE1-ePL Degradation 4 hr (Ymin)” value at WEE1 (setting [1]) came to 37.67. Further, the DC50 on WEE1 turned out to be 11.7 nM. Moreover, in the test with MKN45 cells (growth inhibition), the EC50 is 16.9 nM. The “MKN45 Cell Prolif. 120 hr (Ymin-Obs)” value with MKN45 cells is 22.78.
For `O=C1CCC(N2Cc3cc(O[C@@H]4CN(Cc5ccc6nc([C@H]7CCOC7)ccc6c5)C[C@@H]4F)ccc3C2=O)C(=O)N1` (stereo partly drawn) [3-(5-{[(3R,4S)-4-fluoro-1-({2-[(3R)-oxolan-3-yl]quinolin-6-yl}methyl)pyrrolidin-3-yl]oxy}-1-oxo-2,3-dihydro-1H-isoindol-2-yl)piperidine-2,6-dione], the “293T-LentiX WEE1-ePL Degradation 4 hr (Ymin)” value on WEE1 (setting [2]) is reported as 30.72. For the same compound, the DC50 at WEE1 is 3.84 nM. In the test with MKN45 cells, the EC50 worked out at 4.96 nM and the “MKN45 Cell Prolif. 120 hr (Ymin-Obs)” value turned out to be 13.2.
The matching figures for `O=C1CCC(N2Cc3cc(O[C@@H]4CN(Cc5ccc6nc([C@@H]7CCOC7)ccc6c5)C[C@@H]4F)ccc3C2=O)C(=O)N1` (stereo partly drawn) [3-(5-{[(3R,4S)-4-fluoro-1-({2-[(3S)-oxolan-3-yl]quinolin-6-yl}methyl)pyrrolidin-3-yl]oxy}-1-oxo-2,3-dihydro-1H-isoindol-2-yl)piperidine-2,6-dione]: 33.6, 5.69 nM, 9.42 nM and 10.88.
As to `O=C1CCC(N2Cc3cc(O[C@@H]4CN(Cc5ccc6nc(C7CCOCC7)ccc6c5)C[C@@H]4F)ccc3C2=O)C(=O)N1` (stereo partly drawn) [3-(5-{[(3R,4S)-4-fluoro-1-{[2-(oxan-4-yl)quinolin-6-yl]methyl}pyrrolidin-3-yl]oxy}-1-oxo-2,3-dihydro-1H-isoindol-2-yl)piperidine-2,6-dione], on WEE1 (setting [1]), the “293T-LentiX WEE1-ePL Degradation 4 hr (Ymin)” value worked out at 36. Besides, the DC50 on WEE1 stood at 13.2 nM. Also, the EC50 in the test with MKN45 cells (growth inhibition) stood at 7.13 nM. For the same compound, the “MKN45 Cell Prolif. 120 hr (Ymin-Obs)” value with MKN45 cells is on record as 8.923.
As for `CNC1(c2ccc3cc(CN4CC[C@H](Oc5ccc6c(c5)CN(C5CCC(=O)NC5=O)C6=O)C4)ccc3n2)COC1` (stereo partly drawn) [3-(5-{[(3S)-1-({2-[3-(methylamino)oxetan-3-yl]quinolin-6-yl}methyl)pyrrolidin-3-yl]oxy}-1-oxo-2,3-dihydro-1H-isoindol-2-yl)piperidine-2,6-dione], the “293T-LentiX WEE1-ePL Degradation 4 hr (Ymin)” value at WEE1 (setting [1]) came out at 36. The DC50 at WEE1 worked out at 37.6 nM. Also, in the test on MKN45 cells (growth inhibition), the EC50 worked out at 19.9 nM. The “MKN45 Cell Prolif. 120 hr (Ymin-Obs)” value with MKN45 cells turned out to be 9.16.
Consider `CN(C)C1CCN(c2ccc3cc(CN4CC[C@H](Oc5ccc6c(c5)CN(C5CCC(=O)NC5=O)C6=O)C4)ccc3n2)CC1` (stereo partly drawn) [3-(5-{[(3S)-1-({2-[4-(dimethylamino)piperidin-1-yl]quinolin-6-yl}methyl)pyrrolidin-3-yl]oxy}-1-oxo-2,3-dihydro-1H-isoindol-2-yl)piperidine-2,6-dione], for which the “293T-LentiX WEE1-ePL Degradation 4 hr (Ymin)” value on WEE1 (setting [2]) was 32.07. Further, at WEE1, the DC50 came out at 26.2 nM. Also, in the test on MKN45 cells, the EC50 worked out at 19.7 nM and the “MKN45 Cell Prolif. 120 hr (Ymin-Obs)” value is on record as 15.14.
As for `CNC1CCN(c2ccc3cc(CN4CC[C@H](Oc5ccc6c(c5)CN(C5CCC(=O)NC5=O)C6=O)C4)ccc3n2)CC1` (stereo partly drawn) [3-(5-{[(3S)-1-({2-[4-(methylamino)piperidin-1-yl]quinolin-6-yl}methyl)pyrrolidin-3-yl]oxy}-1-oxo-2,3-dihydro-1H-isoindol-2-yl)piperidine-2,6-dione], on WEE1 (setting [2]), the “293T-LentiX WEE1-ePL Degradation 4 hr (Ymin)” value was 38.12. On WEE1, the DC50 worked out at 64.4 nM. For the same compound, in the test with MKN45 cells, the EC50 worked out at 84.9 nM and the “MKN45 Cell Prolif. 120 hr (Ymin-Obs)” value worked out at 25.09.
The matching figures for `COC[C@@H]1CCCC[C@H]1c1ccc2cc(CN3CC[C@H](Oc4ccc5c(c4)CN(C4CCC(=O)NC4=O)C5=O)C3)ccc2n1` (stereo partly drawn) [3-(5-{[(3S)-1-({2-[(1R,2R)-2-(methoxymethyl)cyclohexyl]quinolin-6-yl}methyl)pyrrolidin-3-yl]oxy}-1-oxo-2,3-dihydro-1H-isoindol-2-yl)piperidine-2,6-dione]: 20.92, 3.65 nM, 2.53 nM and 12.91.
`CO[C@H]1CCCC[C@@H]1c1ccc2cc(CN3CC[C@H](Oc4ccc5c(c4)CN(C4CCC(=O)NC4=O)C5=O)C3)ccc2n1` (stereo partly drawn) [3-(5-{[(3S)-1-({2-[(1R,2S)-2-methoxycyclohexyl]quinolin-6-yl}methyl)pyrrolidin-3-yl]oxy}-1-oxo-2,3-dihydro-1H-isoindol-2-yl)piperidine-2,6-dione]: the “293T-LentiX WEE1-ePL Degradation 4 hr (Ymin)” value on WEE1 (setting [2]) is recorded as 25.39. Moreover, the DC50 on WEE1 worked out at 4.52 nM. Also, in the test with MKN45 cells, the EC50 turned out to be 7.63 nM and the “MKN45 Cell Prolif. 120 hr (Ymin-Obs)” value came out at 23.82.
As for `CO[C@H]1CCC[C@@H]1c1ccc2cc(CN3CC[C@H](Oc4ccc5c(c4)CN(C4CCC(=O)NC4=O)C5=O)C3)ccc2n1` (stereo partly drawn) [3-(5-{[(3S)-1-({2-[(1R,2S)-2-methoxycyclopentyl]quinolin-6-yl}methyl)pyrrolidin-3-yl]oxy}-1-oxo-2,3-dihydro-1H-isoindol-2-yl)piperidine-2,6-dione], the “293T-LentiX WEE1-ePL Degradation 4 hr (Ymin)” value on WEE1 (setting [2]) came to 30.79. Further, on WEE1, the DC50 was determined as 4.34 nM. Also, in the test on MKN45 cells, the EC50 stood at 5.54 nM and the “MKN45 Cell Prolif. 120 hr (Ymin-Obs)” value is reported as 8.858.
The matching figures for `COC[C@@H]1CC[C@@H](c2ccc3cc(CN4CC[C@H](Oc5ccc6c(c5)CN(C5CCC(=O)NC5=O)C6=O)C4)ccc3n2)C1` (stereo partly drawn) [3-(5-{[(3S)-1-({2-[(1R,3R)-3-(methoxymethyl)cyclopentyl]quinolin-6-yl}methyl)pyrrolidin-3-yl]oxy}-1-oxo-2,3-dihydro-1H-isoindol-2-yl)piperidine-2,6-dione]: 34.2, 3.01 nM, 3.05 nM and 8.79.
Regarding `O=C1CCC(N2Cc3cc(O[C@H]4CCN(Cc5ccc6nc([C@@H]7CCC[C@@H](O)C7)ccc6c5)C4)ccc3C2=O)C(=O)N1` (stereo partly drawn) [3-(5-{[(3S)-1-({2-[(1R,3R)-3-hydroxycyclohexyl]quinolin-6-yl}methyl)pyrrolidin-3-yl]oxy}-1-oxo-2,3-dihydro-1H-isoindol-2-yl)piperidine-2,6-dione], at WEE1 (setting [1]), the “293T-LentiX WEE1-ePL Degradation 4 hr (Ymin)” value is 31. At WEE1, the DC50 stood at 3.18 nM. Also, the EC50 in the test on MKN45 cells (growth inhibition) worked out at 1.18 nM. The “MKN45 Cell Prolif. 120 hr (Ymin-Obs)” value with MKN45 cells was 8.405.
On the same counts, the results for `O=C1CCC(N2Cc3cc(O[C@H]4CCN(Cc5ccc6nc([C@@H]7CC[C@@H](O)C7)ccc6c5)C4)ccc3C2=O)C(=O)N1` (stereo partly drawn) [3-(5-{[(3S)-1-({2-[(1R,3R)-3-hydroxycyclopentyl]quinolin-6-yl}methyl)pyrrolidin-3-yl]oxy}-1-oxo-2,3-dihydro-1H-isoindol-2-yl)piperidine-2,6-dione] are 31.5, 2.6 nM, 1.38 nM and 8.2675.
On the same counts, the results for `CO[C@@H]1CCC[C@@H](c2ccc3cc(CN4CC[C@H](Oc5ccc6c(c5)CN(C5CCC(=O)NC5=O)C6=O)C4)ccc3n2)C1` (stereo partly drawn) [3-(5-{[(3S)-1-({2-[(1R,3R)-3-methoxycyclohexyl]quinolin-6-yl}methyl)pyrrolidin-3-yl]oxy}-1-oxo-2,3-dihydro-1H-isoindol-2-yl)piperidine-2,6-dione] are 29, 2.83 nM, 0.93 nM and 7.97.
On the same counts, the results for `CO[C@@H]1CC[C@@H](c2ccc3cc(CN4CC[C@H](Oc5ccc6c(c5)CN(C5CCC(=O)NC5=O)C6=O)C4)ccc3n2)C1` (stereo partly drawn) [3-(5-{[(3S)-1-({2-[(1R,3R)-3-methoxycyclopentyl]quinolin-6-yl}methyl)pyrrolidin-3-yl]oxy}-1-oxo-2,3-dihydro-1H-isoindol-2-yl)piperidine-2,6-dione] are 30, 4.74 nM, 1.95 nM and 7.45.
Turning to `COC[C@H]1CC[C@@H](c2ccc3cc(CN4CC[C@H](Oc5ccc6c(c5)CN(C5CCC(=O)NC5=O)C6=O)C4)ccc3n2)C1` (stereo partly drawn) [3-(5-{[(3S)-1-({2-[(1R,3S)-3-(methoxymethyl)cyclopentyl]quinolin-6-yl}methyl)pyrrolidin-3-yl]oxy}-1-oxo-2,3-dihydro-1H-isoindol-2-yl)piperidine-2,6-dione], at WEE1 (setting [2]), the “293T-LentiX WEE1-ePL Degradation 4 hr (Ymin)” value is recorded as 34.11. Besides, the DC50 on WEE1 was found to be 3.12 nM. In the test on MKN45 cells, the EC50 came out at 3.09 nM and the “MKN45 Cell Prolif. 120 hr (Ymin-Obs)” value is on record as 8.888.
Turning to `O=C1CCC(N2Cc3cc(O[C@H]4CCN(Cc5ccc6nc([C@@H]7CC[C@H](O)C7)ccc6c5)C4)ccc3C2=O)C(=O)N1` (stereo partly drawn) [3-(5-{[(3S)-1-({2-[(1R,3S)-3-hydroxycyclopentyl]quinolin-6-yl}methyl)pyrrolidin-3-yl]oxy}-1-oxo-2,3-dihydro-1H-isoindol-2-yl)piperidine-2,6-dione], the “293T-LentiX WEE1-ePL Degradation 4 hr (Ymin)” value at WEE1 (setting [1]) is given as 32. Also, the DC50 on WEE1 worked out at 3.33 nM. Also, the EC50 in the test with MKN45 cells (growth inhibition) came out at 0.655 nM. Further, in the test on MKN45 cells, the “MKN45 Cell Prolif. 120 hr (Ymin-Obs)” value came to 7.585.

One may read the EC50 as the concentration needed to bring the measured effect to its halfway point.

Values taken from patent US20240067632A1, “WEE1 Degrading Compounds and Uses Thereof” (Bristol-Myers Squibb Company, priority 2022, published 2024).
